From patent publication US20250361234A1 (NICO THERAPEUTICS, INC., priority 2022, published 2025)

Biological target: T1, full-length SARM1 (FL-SARM1) (Homo sapiens, UniProt Q6SZW1)
T1 sequence (Q6SZW1 28-724): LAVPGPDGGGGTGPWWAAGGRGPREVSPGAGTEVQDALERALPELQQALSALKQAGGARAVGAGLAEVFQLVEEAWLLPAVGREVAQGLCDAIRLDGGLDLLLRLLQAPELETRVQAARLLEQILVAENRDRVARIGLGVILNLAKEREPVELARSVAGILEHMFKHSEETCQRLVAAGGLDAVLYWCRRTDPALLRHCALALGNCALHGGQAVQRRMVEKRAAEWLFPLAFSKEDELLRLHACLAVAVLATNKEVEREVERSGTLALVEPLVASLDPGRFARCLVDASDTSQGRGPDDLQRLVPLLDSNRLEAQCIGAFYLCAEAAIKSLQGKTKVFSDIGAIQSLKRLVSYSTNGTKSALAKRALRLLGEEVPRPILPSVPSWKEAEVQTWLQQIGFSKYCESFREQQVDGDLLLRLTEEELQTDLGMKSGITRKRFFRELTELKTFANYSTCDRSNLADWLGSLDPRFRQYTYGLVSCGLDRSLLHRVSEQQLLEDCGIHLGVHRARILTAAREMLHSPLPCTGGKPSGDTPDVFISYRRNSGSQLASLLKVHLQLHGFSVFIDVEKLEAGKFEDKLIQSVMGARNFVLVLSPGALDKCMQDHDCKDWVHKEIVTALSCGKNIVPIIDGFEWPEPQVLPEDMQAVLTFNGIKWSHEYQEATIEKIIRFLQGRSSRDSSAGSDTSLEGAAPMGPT
Assay: FL-SARM1 cellular lysate assay (NAD/NADH-Glo readout of remaining NAD+)
Conditions: SARM1 cellular lysate from transfected HEK293T cells, NAD+ and NMN, 11 point curve
Procedure: Preparation of full-length SARM1 (FL-SARM1) lysate: HEK293T cells (ATCC: CRL-3216) were grown on 150 mm TC-treated dishes to 80-90% confluency in complete DMEM (Thermo Fisher: 11965175) supplemented with 10% HI-FBS (VWR: 10802-772), 1× Pen/Strep (Thermo Fisher: 15140122), 1× NEAA (Thermo Fisher: 1140050), 1× glutamax (Thermo Fisher: 35050061), and 1 mM sodium pyruvate (Thermo Fisher: 11360070)) at 37° C. and 5% CO2. One hour prior to transfection, the media was replaced with fresh, 37° C. complete DMEM (20 mL per one 150 mm dish) supplemented with additional 10 mM glucose (Alfa Aesar AAJ60067EQE). Per one 150 mm dish, 30 μg FL-SARM1 (SEQ. ID. 1; cloned in-house) plasmid was dissolved in 1 mL DMEM at ambient temperature and were mixed by inverting the tube 8-10 times. 90 μL of GenJet™ in vitro DNA transfection reagent (Ver2) was dissolved in 1 mL DMEM at ambient temperature and were mixed by inverting the tube 8-10 times. The plasmid and transfection agent solutions were combined, mixed by 8-10 inversions and incubated for 10 minutes at ambient temperature. 2 mL of this transfection mixture was added to each dish containing HEK293T cells as prepared above followed by a gentle mixing of 4-5 horizontal rotations. The dishes were incubated at 37° C. and 5% CO2 for 24 h. The dishes were removed from the incubator, the medium was aspirated and the cells were scraped off using cell scrapers in ice-cold 1× PBS (5 mL/dish, Thermo Fisher Scientific 10010023). The collected cells were centrifuged at 300 g for 5 minutes at 4° C. The supernatant was aspirated and the pellet was frozen at −80° C. until needed. The cell pellet from 30 dishes was dissolved in 30 mL 1× PBS supplemented with 4 tablets of Complete, Mini EDTA-free protease inhibitor cocktail at 4° C. This mixture was sonicated on ice for 10 minutes at 50% amplitude with a 1 second on/1 second off interval using a Model 120 sonicator (Thermo Fisher Scientific, FB120110). The lysate was centrifuged at 16000 g for 10 minutes at 4° C.
To a white 384-well Proxiplate (PerkinElmer, PE-6008280) was added 50 nL/well of a DMSO solution containing test compounds followed by 7.5 mL/well of a 0.067 mg/mL solution of SARM1 cellular lysate in reaction buffer (DPBS containing CHAPSO (0.1%) and fatty acid free BSA (0.032%)). The plate was centrifuged for 1 minute at 1000 RPM and then placed in an incubator at 23° C. for 15 minutes. To the wells were added 2.5 mL/well of a solution containing 40 mM NAD^+ and 4 mM NMN in reaction buffer. The plate was centrifuged for 1 min at 1000 RPM, the plate was sealed and placed in an incubator at 23° C. for 3.5 hours before adding 3.5 mL/well of NAD/NADH-Glo™ solution (preparation as described by Promega using the extended detection protocol). The plate was centrifuged for 1 minute at 1000 RPM and then incubated at 23° C. for 20 minutes. 1 mL/well of a 3.625 mM solution of menadione in DMSO was added and the plate was centrifuged for 1 minute at 1000 RPM. […] Percent inhibition was calculated as follows:
IC50 values were calculated from an 11 point curve using ½ log dilutions using a four-parameter logistic regression curve fit.

| SMILES | IC50 (Activity (μM)) [µM] | IC50 (Activity) [µM] |
| --- | --- | --- |
| Cc1ccc(NC(=O)N2C[C@@H](C)CC[C@H]2C)cc1-c1cncc(F)c1 (racemic) [Example 8, cis-N-(3-(5-fluoropyridin-3-yl)-4-methylphenyl)-2,5-dimethylpiperidine-1-carboxamide] | 2.6 | 1 to 10 |
| Cc1ccc(NC(=O)N2C[C@@H]3C[C@H]2C[C@H]3OC(F)F)cc1-c1cncc(F)c1 (racemic) [Example 31, cis-5-(difluoromethoxy)-N-(3-(5-fluoropyridin-3-yl)-4-methylphenyl)-2-azabicyclo[2.2.1]heptane-2-carboxamide] | 28.6 | > 10 |
| Cc1ccc(NC(=O)N2CCCCC2C)cc1-c1cncc(F)c1 (racemic) [Example 32, N-(3-(5-fluoropyridin-3-yl)-4-methylphenyl)-2-methylpiperidine-1-carboxamide] | 1.9 | 1 to 10 |
| Cc1ccc(NC(=O)C2CCCN2C2CCC2)cc1-c1cncc(F)c1 (racemic) [Example 103, 1-cyclobutyl-N-[3-(5-fluoropyridin-3-yl)-4-methylphenyl]pyrrolidine-2-carboxamide] | 17.7 | > 10 |
| Cc1ccc(NC(=O)C2CCCN2c2ncccn2)cc1-c1cncc(F)c1 (racemic) [Example 104, N-[3-(5-fluoropyridin-3-yl)-4-methylphenyl]-1-pyrimidin-2-ylpyrrolidine-2-carboxamide] | 26.4 | > 10 |
| Cc1ccc(NC(=O)C2CCCN2C(=O)OC(C)(C)C)cc1-c1cncc(F)c1 (racemic) [Example 105, tert-butyl 2-[[3-(5-fluoropyridin-3-yl)-4-methylphenyl]carbamoyl]pyrrolidine-1-carboxylate] | 13.5 | > 10 |
| Cc1ccc(NC(=O)N2CC[C@@H](C)C[C@H]2C)cc1-c1cncc(F)c1 (racemic) [Example 119, cis-N-(3-(5-fluoropyridin-3-yl)-4-methylphenyl)-2,4-dimethylpiperidine-1-carboxamide] | 1.1 | 1 to 10 |
| Cc1ccc(NC(=O)N2C[C@@H]3C[C@H]2C[C@@H]3C#N)cc1-c1cncc(F)c1 (relative stereo) [Example 24, trans-5-cyano-N-(3-(5-fluoropyridin-3-yl)-4-methylphenyl)-2-azabicyclo[2.2.1]heptane-2-carboxamide] | 3.3 | 1 to 10 |
| COC(=O)[C@H]1C[C@@H]2C[C@H](C1)N2C(=O)Nc1ccc(C)c(-c2cncc(F)c2)c1 (single isomer, unassigned) [Example 12, trans-methyl 6-((3-(5-fluoropyridin-3-yl)-4-methylphenyl)carbamoyl)-6-azabicyclo[3.1.1]heptane-3-carboxylate] | 3.7 | 1 to 10 |
| COC(=O)[C@H]1CC2C[C@@H](C1)N2C(=O)Nc1ccc(C)c(-c2cncc(F)c2)c1 (single isomer, unassigned) [Example 13, cis-methyl 6-((3-(5-fluoropyridin-3-yl)-4-methylphenyl)carbamoyl)-6-azabicyclo[3.1.1]heptane-3-carboxylate] | 3.4 | 1 to 10 |
| Cc1ccc(NC(=O)N2C3CC2CC(C)(O)C3)cc1-c1cncc(F)c1 (single isomer, unassigned) [Example 46, N-(3-(5-fluoropyridin-3-yl)-4-methylphenyl)-3-hydroxy-3-methyl-6-azabicyclo[3.1.1]heptane-6-carboxamide] | 8.7 | 1 to 10 |
| C[C@@H]1CC2C[C@@H](C1)N2C(=O)Nc1ccc(C2CC2)c(-c2cncc(F)c2)c1 (single isomer, unassigned) [Example 50, trans-N-(4-cyclopropyl-3-(5-fluoropyridin-3-yl)phenyl)-3-methyl-6-azabicyclo[3.1.1]heptane-6-carboxamide] | 0.2 | 0.0001 to 1 |
| C[C@@H]1CC2C[C@H](C1)N2C(=O)Nc1ccc(C2CC2)c(-c2cncc(F)c2)c1 (single isomer, unassigned) [Example 51, cis-N-(4-cyclopropyl-3-(5-fluoropyridin-3-yl)phenyl)-3-methyl-6-azabicyclo[3.1.1]heptane-6-carboxamide] | 0.2 | 0.0001 to 1 |
| C[C@@H]1CC2C[C@@H](C1)N2C(=O)Nc1ccc(C(F)(F)F)c(-c2cncc(F)c2)c1 (single isomer, unassigned) [Example 52, trans-N-(3-(5-fluoropyridin-3-yl)-4-(trifluoromethyl)phenyl)-3-methyl-6-azabicyclo[3.1.1]heptane-6-carboxamide] | 0.08 | 0.0001 to 1 |
| C[C@@H]1CC2C[C@H](C1)N2C(=O)Nc1ccc(C(F)(F)F)c(-c2cncc(F)c2)c1 (single isomer, unassigned) [Example 53, cis-N-(3-(5-fluoropyridin-3-yl)-4-(trifluoromethyl)phenyl)-3-methyl-6-azabicyclo[3.1.1]heptane-6-carboxamide] | 0.06 | 0.0001 to 1 |
| C[C@@H]1CC2C[C@@H](C1)N2C(=O)Nc1ccc(F)c(-c2cncc(F)c2)c1 (single isomer, unassigned) [Example 57, trans-N-(4-fluoro-3-(5-fluoropyridin-3-yl)phenyl)-3-methyl-6-azabicyclo[3.1.1]heptane-6-carboxamide] | 0.3 | 0.0001 to 1 |
| C[C@@H]1CC2C[C@H](C1)N2C(=O)Nc1ccc(F)c(-c2cncc(F)c2)c1 (single isomer, unassigned) [Example 58, cis-N-(4-fluoro-3-(5-fluoropyridin-3-yl)phenyl)-3-methyl-6-azabicyclo[3.1.1]heptane-6-carboxamide] | 0.3 | 0.0001 to 1 |
| C[C@@H]1CC2C[C@@H](C1)N2C(=O)Nc1ccc(C#N)c(-c2cncc(F)c2)c1 (single isomer, unassigned) [Example 77, trans-N-(4-cyano-3-(5-fluoropyridin-3-yl)phenyl)-3-methyl-6-azabicyclo[3.1.1]heptane-6-carboxamide] | 0.4 | 0.0001 to 1 |
| C[C@H]1CC2C[C@@H](C1)N2C(=O)Nc1ccc(C#N)c(-c2cncc(F)c2)c1 (single isomer, unassigned) [Example 78, cis-N-(4-cyano-3-(5-fluoropyridin-3-yl)phenyl)-3-methyl-6-azabicyclo[3.1.1]heptane-6-carboxamide] | 0.1 | 0.0001 to 1 |
| C[C@@H]1CC2C[C@@H](C1)N2C(=O)Nc1ccc(Cl)c(-c2cncc(F)c2)c1 (single isomer, unassigned) [Example 79, trans-N-(4-chloro-3-(5-fluoropyridin-3-yl)phenyl)-3-methyl-6-azabicyclo[3.1.1]heptane-6-carboxamide] | 0.1 | 0.0001 to 1 |
| C[C@H]1CC2C[C@@H](C1)N2C(=O)Nc1ccc(Cl)c(-c2cncc(F)c2)c1 (single isomer, unassigned) [Example 80, cis-N-(4-chloro-3-(5-fluoropyridin-3-yl)phenyl)-3-methyl-6-azabicyclo[3.1.1]heptane-6-carboxamide] | 0.07 | 0.0001 to 1 |
| Cc1ccc(NC(=O)N2C3C[C@@H](C)C[C@@H]2C3)cc1-c1cncc(F)c1 (single isomer, unassigned) [Example 83, trans-N-(3-(5-fluoropyridin-3-yl)-4-methylphenyl)-3-methyl-6-azabicyclo[3.1.1]heptane-6-carboxamide] | 0.01 | 0.0001 to 1 |
| Cc1nnc([C@]23C[C@H](C)C[C@H](C2)N3C(=O)Nc2ccc(C(F)(F)F)c(-c3cncc(F)c3)c2)o1 (single isomer, unassigned) [Example 120, cis-N-(3-(5-fluoropyridin-3-yl)-4-(trifluoromethyl)phenyl)-3-methyl-1-(5-methyl-1,3,4-oxadiazol-2-yl)-6-azabicyclo[3.1.1]heptane-6-carboxamide] | > 50 | > 10 |
| Cc1nnc([C@]23C[C@H](C)C[C@H](C2)N3C(=O)Nc2ccc(C(F)(F)F)c(-c3cncc(F)c3)c2)o1 (single isomer, unassigned) [Example 121, cis-N-(3-(5-fluoropyridin-3-yl)-4-(trifluoromethyl)phenyl)-3-methyl-1-(5-methyl-1,3,4-oxadiazol-2-yl)-6-azabicyclo[3.1.1]heptane-6-carboxamide] | 0.034 | 0.0001 to 1 |
| COc1cncc(-c2cc(NC(=O)N3[C@@H]4C[C@@H](C)C[C@@]3(c3nnc(C)o3)C4)c(F)cc2C(F)(F)F)c1 (single isomer, unassigned) [Example 122, cis-N-(2-fluoro-5-(5-methoxypyridin-3-yl)-4-(trifluoromethyl)phenyl)-3-methyl-1-(5-methyl-1,3,4-oxadiazol-2-yl)-6-azabicyclo[3.1.1]heptane-6-carboxamide] | 10.7 | > 10 |
